From ChEMBL document CHEMBL1764994, “QSAR-based permeability model for drug-like compounds” (Bioorg Med Chem, 2011)

Test system: Caco-2
Conditions: human, Caco-2, 2 h
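For permeability in this document: apparent permeability through Caco-2 cell membranes, with the permeated amount quantified by LC-MS/MS.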

Question: For `CC(C(=O)O)c1ccc(C(=O)c2ccccc2)s1` (centres undefined) [TIAPROFENIC ACID], which logPapp is on record?
Answer: -4.41

Question: `CC(C(=O)O)c1ccc2c(c1)Cc1cccnc1O2` (centres undefined) [PRANOPROFEN] was tested. Which logPapp did it give?
Answer: -4.39

Question: With `CN/C(=N/CCSCc1nc[nH]c1C)NC#N` [CIMETIDINE] as the molecule, how does the logPapp read?
Answer: -5.88

Question: With `COCCc1ccc(OCC(O)CNC(C)C)cc1` (centres undefined) [METOPROLOL] as the molecule, how does the permeability read?
Answer: permeable

Question: For `NCCc1ccc(O)c(O)c1` [DOPAMINE], which logPapp is on record?
Answer: -5.03

Question: With `Cc1cc(=O)n(-c2ccccc2)n1C` [ANTIPYRINE] as the molecule, how does the permeability read?
Answer: permeable

Question: How did the logPapp turn out when `CC(C)NCC(O)COc1cccc2[nH]ccc12` (centres undefined) [PINDOLOL] was run?
Answer: -4.41

Question: With `C=CCOc1ccccc1OCC(O)CNC(C)C` (centres undefined) [OXPRENOLOL] as the molecule, how does the logPapp read?
Answer: -4.21

Question: Which logPapp does the source give for `CC#Cc1cn([C@@H]2O[C@H](CO)[C@@H](O)[C@@H]2O)c(=O)[nH]c1=O` [NETIVUDINE] here?
Answer: -6.17

Question: Which logPapp does the source give for `O=C(O)c1cc(/N=N/c2ccc(S(=O)(=O)Nc3ccccn3)cc2)ccc1O` [SULFASALAZINE] here?
Answer: -6.61

Question: For `CC1(C)S[C@@H]2[C@H](NC(=O)Cc3ccccc3)C(=O)N2[C@H]1C(=O)O` [PENICILLIN G], which logPapp is on record?
Answer: -6.11

Question: For `CNC(=NCCSCc1csc(N=C(N)N)n1)NC#N` [TIOTIDINE], which logPapp is on record?
Answer: -5.66

Question: Which logPapp does the source give for `NC(=O)N1c2ccccc2C=Cc2ccccc21` [CARBAMAZEPINE] here?
Answer: -5.3

Question: What about the permeability of the same molecule?
Answer: permeable

Question: With `CC(C(=O)O)c1cccc(C(=O)c2ccccc2)c1` (centres undefined) [KETOPROFEN] as the molecule, how does the permeability read?
Answer: permeable

Question: `N[C@@H]1[C@H]2CN(c3nc4c(cc3F)c(=O)c(C(=O)O)cn4-c3ccc(F)cc3F)C[C@@H]12` [TROVAFLOXACIN] was tested. Which logPapp did it give?
Answer: -4.52

Question: For `Cc1ccc(/C(=C\CN2CCCC2)c2cccc(/C=C/C(=O)O)n2)cc1` [ACRIVASTINE], which logPapp is on record?
Answer: -5.72

Question: `CNC[C@H](O)c1ccc(O)c(O)c1` [EPINEPHRINE] was tested. Which logPapp did it give?
Answer: -6.02

Question: For `C[C@H](CCC(=O)NCCS(=O)(=O)O)[C@H]1CC[C@H]2[C@@H]3[C@H](O)C[C@@H]4C[C@H](O)CC[C@]4(C)[C@H]3C[C@H](O)[C@]12C` [TAUROCHOLIC ACID], which logPapp is on record?
Answer: -4.46

Question: `Clc1cccc(Cl)c1N=C1NCCN1` [CLONIDINE] was tested. Which logPapp did it give?
Answer: -4.66

Question: With `CC(C)(C)NC[C@H](O)COc1nsnc1N1CCOCC1` [TIMOLOL] as the molecule, how does the logPapp read?
Answer: -4.43

Question: How did the logPapp turn out when `c1ccc(C2(N3CCCCC3)CCCCC2)cc1` [PHENCYCLIDINE] was run?
Answer: -4.61

Question: `CN1CCC[C@H]1c1cccnc1` [NICOTINE] was tested. Which logPapp did it give?
Answer: -4.58

Question: How did the permeability turn out when `C[C@](N)(Cc1ccc(O)c(O)c1)C(=O)O` [METHYLDOPA] was run?
Answer: permeable

Question: Which logPapp does the source give for `Cn1c(=O)c2[nH]cnc2n(C)c1=O.O` [THEOPHYLLINE] here?
Answer: -4.4

Question: What about the permeability of the same molecule?
Answer: permeable

Question: Which permeability does the source give for `OC[C@@H](O)[C@@H](O)[C@H](O)[C@H](O)CO` [MANNITOL] here?
Answer: permeable

Question: Which logPapp does the source give for `CC(=O)[C@H]1CC[C@H]2[C@@H]3CCC4=CC(=O)CC[C@]4(C)[C@H]3CC[C@]12C` [PROGESTERONE] here?
Answer: -4.55

Question: Which logPapp does the source give for `CNC(=C[N+](=O)[O-])NCCSCc1ccc(CN(C)C)o1` [RANITIDINE] here?
Answer: -6.2

Question: And the permeability?
Answer: permeable

Question: For `CC(C)n1c(/C=C/C(O)CC(O)CC(=O)O)c(-c2ccc(F)cc2)c2ccccc21` (centres undefined) [FLUVASTATIN], which permeability is on record?
Answer: permeable

Question: With `CCCc1nc2c(C)cc(-c3nc4ccccc4n3C)cc2n1Cc1ccc(-c2ccccc2C(=O)O)cc1` as the molecule, how does the logPapp read?
Answer: -4.82

Question: Which permeability does the source give for `CC1(C)S[C@@H]2[C@H](NC(=O)[C@H](N)c3ccc(O)cc3)C(=O)N2[C@H]1C(=O)O` [AMOXICILLIN] here?
Answer: permeable

Test system: Caco-2
Conditions: human, Caco-2, 2 h
Remark: another data set of the same source

Question: How did the logPapp turn out when `CC[C@H](C)C(=O)O[C@H]1C[C@H](O)C=C2C=C[C@H](C)[C@H](CC[C@@H](O)C[C@@H](O)CC(=O)O)[C@H]21` [PRAVASTATIN] was run?
Answer: -6.56

Question: For `CCOC(=O)[C@H](CCc1ccccc1)N[C@@H](C)C(=O)N1CCC[C@H]1C(=O)O`, which logPapp is on record?
Answer: -6.1

Question: How did the logPapp turn out when `CC(C)[C@H](N)C(=O)OCCOCn1cnc2c(=O)[nH]c(N)nc21` [VALACYCLOVIR] was run?
Answer: -6.52

Test system: Caco-2
Conditions: human

Question: For `CC[C@H](C)C(=O)O[C@H]1C[C@H](O)C=C2C=C[C@H](C)[C@H](CC[C@@H](O)C[C@@H](O)CC(=O)O)[C@H]21` [PRAVASTATIN], which logPapp is on record?
Answer: -5.64

Question: Which logPapp does the source give for `CCOC(=O)[C@H](CCc1ccccc1)N[C@@H](C)C(=O)N1CCC[C@H]1C(=O)O` here?
Answer: -5.7

Question: `CC(C)[C@H](N)C(=O)OCCOCn1cnc2c(=O)[nH]c(N)nc21` [VALACYCLOVIR] was tested. Which logPapp did it give?
Answer: -6.3
